In paper PMC3961306, “Comparison of the Cancer Gene Targeting and Biochemical Selectivities of All Targeted Kinase Inhibitors Approved for Clinical Use” (PLoS ONE, 2014):
Where two headings read alike, the source gives them in different places.

How the values were obtained:
[1] = tested on: forty-four human cancer cell lines; assay: Cell proliferation assay (ATPlite, 72 hours) in the 44 cell line Oncolines panel; format: cell-based; settings: Homo sapiens
[2] = target: panel of more than 300 wild-type and mutant kinases (313 kinase panel) (Homo sapiens, UniProt P07947, T348I); assay: Kinase profiling in a biochemical assay panel (mobility shift assays and ELISA), %-inhibition at 1 μM; selectivity entropy; settings: kinase YES(T348I); compound at 1 μM
panel of more than 300 wild-type and mutant kinases (313 kinase panel) (Homo sapiens, UniProt P07947, T348I), sequence (P07947 whole entry T348I): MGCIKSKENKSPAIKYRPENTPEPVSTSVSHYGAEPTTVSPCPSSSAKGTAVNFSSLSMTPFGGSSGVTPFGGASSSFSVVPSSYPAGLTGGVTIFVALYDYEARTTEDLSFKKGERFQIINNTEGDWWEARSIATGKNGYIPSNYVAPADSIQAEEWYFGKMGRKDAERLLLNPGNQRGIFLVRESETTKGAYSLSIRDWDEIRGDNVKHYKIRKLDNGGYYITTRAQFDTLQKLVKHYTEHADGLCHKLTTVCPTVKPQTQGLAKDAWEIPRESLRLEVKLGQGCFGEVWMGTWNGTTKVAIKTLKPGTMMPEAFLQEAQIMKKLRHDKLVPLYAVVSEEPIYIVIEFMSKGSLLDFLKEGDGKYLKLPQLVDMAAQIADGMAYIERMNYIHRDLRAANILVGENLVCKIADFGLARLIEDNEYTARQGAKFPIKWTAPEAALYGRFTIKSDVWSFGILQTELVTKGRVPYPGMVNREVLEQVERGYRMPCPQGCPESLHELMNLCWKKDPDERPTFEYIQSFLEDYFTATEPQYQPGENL

[3] = target: panel of more than 300 wild-type and mutant kinases (313 kinase panel) (Homo sapiens, UniProt P09619); assay: as above; settings: kinase PDGFRβ; 1 μM
[4] = target: panel of more than 300 wild-type and mutant kinases (313 kinase panel) (Homo sapiens, UniProt P15056); assay: as above; settings: kinase BRAF; 1 μM compound
panel of more than 300 wild-type and mutant kinases (313 kinase panel) (Homo sapiens, UniProt P15056), sequence (P15056 whole entry, stated change not applied): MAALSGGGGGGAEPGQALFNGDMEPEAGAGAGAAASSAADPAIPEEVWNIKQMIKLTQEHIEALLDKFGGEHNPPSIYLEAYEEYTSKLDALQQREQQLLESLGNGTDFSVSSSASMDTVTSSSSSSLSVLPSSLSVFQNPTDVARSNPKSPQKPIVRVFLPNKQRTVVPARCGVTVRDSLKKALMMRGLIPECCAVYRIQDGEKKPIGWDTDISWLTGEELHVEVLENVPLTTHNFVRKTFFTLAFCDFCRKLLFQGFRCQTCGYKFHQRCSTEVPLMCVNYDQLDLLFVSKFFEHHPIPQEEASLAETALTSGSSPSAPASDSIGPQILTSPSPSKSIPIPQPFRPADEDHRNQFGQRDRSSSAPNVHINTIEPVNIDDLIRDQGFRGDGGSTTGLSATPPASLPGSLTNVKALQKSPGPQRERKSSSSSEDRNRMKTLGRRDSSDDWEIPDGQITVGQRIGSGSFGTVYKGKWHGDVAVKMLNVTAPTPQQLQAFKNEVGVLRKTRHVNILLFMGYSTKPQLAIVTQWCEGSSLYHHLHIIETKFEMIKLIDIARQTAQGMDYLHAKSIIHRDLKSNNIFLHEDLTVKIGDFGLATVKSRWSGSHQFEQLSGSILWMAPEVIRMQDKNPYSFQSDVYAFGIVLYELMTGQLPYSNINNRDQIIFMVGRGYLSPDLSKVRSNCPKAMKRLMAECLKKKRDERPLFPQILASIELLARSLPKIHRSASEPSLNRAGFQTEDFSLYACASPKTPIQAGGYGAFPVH

[5] = target: panel of more than 300 wild-type and mutant kinases (313 kinase panel) (Homo sapiens, UniProt P15056, V600E); assay: as above; settings: kinase BRAF(V600E); 1 μM compound
panel of more than 300 wild-type and mutant kinases (313 kinase panel) (Homo sapiens, UniProt P15056, V600E), sequence (P15056 whole entry V600E): as the sequence (P15056 whole entry, stated change not applied) above, with V600E counted along it

[6] = target: panel of more than 300 wild-type and mutant kinases (313 kinase panel) (Homo sapiens, UniProt P22612); assay: as above; settings: kinase PKACγ; 1 μM
[7] = target: T1, panel of more than 300 wild-type and mutant kinases (313 kinase panel) (Homo sapiens, UniProt P51955); assay: as above; settings: kinase NEK2; 1 μM
T1 sequence (P51955 1-445): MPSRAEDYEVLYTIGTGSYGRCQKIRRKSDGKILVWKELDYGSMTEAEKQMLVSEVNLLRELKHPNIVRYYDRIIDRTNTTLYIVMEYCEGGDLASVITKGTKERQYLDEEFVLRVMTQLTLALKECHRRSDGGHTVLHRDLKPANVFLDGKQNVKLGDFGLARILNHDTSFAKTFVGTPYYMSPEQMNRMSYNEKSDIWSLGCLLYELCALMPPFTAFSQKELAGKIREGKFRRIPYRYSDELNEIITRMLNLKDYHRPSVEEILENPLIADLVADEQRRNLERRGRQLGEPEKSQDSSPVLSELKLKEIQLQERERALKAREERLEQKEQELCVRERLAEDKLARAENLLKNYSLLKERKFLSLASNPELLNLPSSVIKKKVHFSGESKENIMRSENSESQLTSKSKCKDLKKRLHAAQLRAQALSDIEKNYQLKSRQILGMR

[8] = target: T2, panel of more than 300 wild-type and mutant kinases (313 kinase panel) (Homo sapiens, UniProt Q16832); assay: as above; settings: kinase DDR2; compound at 1 μM
T2 sequence (Q16832 22-855): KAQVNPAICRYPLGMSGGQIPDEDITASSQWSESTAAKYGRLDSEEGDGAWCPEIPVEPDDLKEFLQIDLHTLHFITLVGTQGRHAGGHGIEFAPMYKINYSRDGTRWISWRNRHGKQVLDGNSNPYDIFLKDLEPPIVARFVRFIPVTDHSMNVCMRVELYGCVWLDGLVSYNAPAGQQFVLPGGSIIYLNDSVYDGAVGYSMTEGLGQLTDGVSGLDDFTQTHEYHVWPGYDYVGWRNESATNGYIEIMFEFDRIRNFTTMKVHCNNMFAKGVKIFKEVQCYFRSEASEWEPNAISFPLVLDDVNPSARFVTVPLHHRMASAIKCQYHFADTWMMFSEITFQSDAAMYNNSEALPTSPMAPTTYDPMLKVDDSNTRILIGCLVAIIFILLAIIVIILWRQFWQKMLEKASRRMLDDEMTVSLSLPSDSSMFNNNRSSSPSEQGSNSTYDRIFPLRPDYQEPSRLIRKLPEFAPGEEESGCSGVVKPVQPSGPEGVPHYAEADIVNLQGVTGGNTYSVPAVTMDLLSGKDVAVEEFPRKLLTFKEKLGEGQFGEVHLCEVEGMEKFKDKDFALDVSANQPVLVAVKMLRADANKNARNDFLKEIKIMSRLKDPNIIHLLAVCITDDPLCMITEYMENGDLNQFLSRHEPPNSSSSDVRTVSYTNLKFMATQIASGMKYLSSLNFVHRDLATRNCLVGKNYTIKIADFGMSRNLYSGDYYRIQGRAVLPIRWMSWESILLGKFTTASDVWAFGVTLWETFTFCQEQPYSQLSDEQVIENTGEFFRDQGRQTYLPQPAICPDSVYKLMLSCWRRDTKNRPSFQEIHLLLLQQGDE

[9] = target: panel of more than 300 wild-type and mutant kinases (313 kinase panel) (Homo sapiens, UniProt Q8TDX7); assay: as above; settings: kinase NEK7; 1 μM

CO[C@H]1C[C@@H]2CC[C@@H](C)[C@@](O)(O2)C(=O)C(=O)N2CCCC[C@H]2C(=O)O[C@H]([C@H](C)C[C@@H]2CC[C@@H](OCCO)[C@H](OC)C2)CC(=O)[C@H](C)/C=C(\C)[C@@H](O)[C@@H](OC)C(=O)[C@H](C)C[C@H](C)/C=C/C=C/C=C/1C [everolimus]
IC50 ([1]; 769-P, cell line 769-P, read-out: cell panel IC50, 769-P): 373 nM
IC50 ([1]; 786-0, cell line 786-0, read-out: cell panel IC50, 786-0): 204 nM
IC50 ([1]; A 172, read-out: cell panel IC50, A-172, cell line A-172): 50 nM
IC50 ([1]; A204, cell line A-204, read-out: cell panel IC50, A-204): 11900 nM
IC50 ([1]; A498, read-out: cell panel IC50, A-498, cell line A-498): 1240 nM
IC50 ([1]; A549, read-out: cell panel IC50, A-549, cell line A-549): 732 nM
IC50 ([1]; A-375, cell line A375, read-out: cell panel IC50, A375): 18700 nM
IC50 ([1]; A-427, read-out: cell panel IC50, A-427, cell line A-427): 94 nM
IC50 ([1]; ACHN, cell line ACHN, read-out: cell panel IC50, ACHN): 15100 nM
IC50 ([1]; AN3-CA, cell line AN3 CA, read-out: cell panel IC50, AN3 CA): 104 nM
IC50 ([1]; AU565, read-out: cell panel IC50, AU-565, cell line AU-565): 27300 nM
IC50 ([1]; BT-20, cell line BT-20, read-out: cell panel IC50, BT-20): 7 nM
IC50 ([1]; BT-549, read-out: cell panel IC50, BT-549, cell line BT-549): 58 nM
IC50 ([1]; BXPC-3, cell line BxPC-3, read-out: cell panel IC50, BxPC-3): > 31600 nM
IC50 ([1]; C-33-A, cell line C-33 A, read-out: cell panel IC50, C-33 A): 20 nM
IC50 ([1]; CAL-27, cell line CAL 27, read-out: cell panel IC50, CAL 27): 2690 nM
IC50 ([1]; CCRF-CEM, cell line CCRF-CEM, read-out: cell panel IC50, CCRF-CEM): 1420 nM
IC50 ([1]; DLD-1, cell line DLD-1, read-out: cell panel IC50, DLD-1): 495 nM
IC50 ([1]; FaDu, cell line FaDu, read-out: cell panel IC50, FaDu): 1170 nM
IC50 ([1]; HCT-15, cell line HCT-15, read-out: cell panel IC50, HCT-15): 292 nM
IC50 ([1]; HCT-116, read-out: cell panel IC50, HCT-116, cell line HCT-116): 19100 nM
IC50 ([1]; Hs-578T, cell line Hs 578T, read-out: cell panel IC50, Hs 578T): 49 nM
IC50 ([1]; Jurkat E6.1, cell line Jurkat E6.1, read-out: cell panel IC50, Jurkat E6.1): 63 nM
IC50 ([1]; K562, read-out: cell panel IC50, K-562, cell line K-562): > 31600 nM
IC50 ([1]; LS174T, read-out: cell panel IC50, LS 174T, cell line LS 174T): > 31600 nM
IC50 ([1]; LoVo, cell line LoVo, read-out: cell panel IC50, LoVo): > 31600 nM
IC50 ([1]; MG-63, cell line MG-63, read-out: cell panel IC50, MG-63): 453 nM
IC50 ([1]; MOLT-4, cell line MOLT-4, read-out: cell panel IC50, MOLT-4): 153 nM
IC50 ([1]; MeWo, cell line MeWo, read-out: cell panel IC50, MeWo): > 31600 nM
IC50 ([1]; NCI-H82, cell line NCI-H82, read-out: cell panel IC50, NCI-H82): 4780 nM
IC50 ([1]; NCI-H460, cell line NCI-H460, read-out: cell panel IC50, NCI-H460): 3970 nM
IC50 ([1]; OVCAR-3, cell line OVCAR-3, read-out: cell panel IC50, OVCAR-3): 471 nM
IC50 ([1]; RPMI-7951, cell line RPMI-7951, read-out: cell panel IC50, RPMI-7951): 1.2 nM
IC50 ([1]; SHP77, cell line SHP-77, read-out: cell panel IC50, SHP-77): > 31600 nM
IC50 ([1]; SK-N-AS, cell line SK-N-AS, read-out: cell panel IC50, SK-N-AS): 299 nM
IC50 ([1]; SW48, cell line SW48, read-out: cell panel IC50, SW48): 18800 nM
IC50 ([1]; SW480, cell line SW480, read-out: cell panel IC50, SW480): 14800 nM
IC50 ([1]; SW-620, cell line SW620, read-out: cell panel IC50, SW620): 16700 nM
IC50 ([1]; U2OS, cell line U-2 OS, read-out: cell panel IC50, U-2 OS): 4250 nM
IC50 ([1]; cell line J82, read-out: cell panel IC50, J82): 433 nM
IC50 ([1]; cell line PA-1, read-out: cell panel IC50, PA-1): 3350 nM
IC50 ([1]; cell line SJCRH30, read-out: cell panel IC50, SJCRH30): 28400 nM
IC50 ([1]; cell line SR, read-out: cell panel IC50, SR): 109 nM
IC50 ([1]; U-87 MG cell line, ATPlite, 72 hours, read-out: IC50 in cell proliferation assay (table S5 cellpanel data)): 652 nM
%-inhibition of YES(T348I) [2]: -0.414%
%-inhibition of PDGFRβ [3]: -3.52%
%-inhibition, BRAF [4]: -6.54%
%-inhibition, BRAF(V600E) [5]: 2%
%-inhibition of PKACγ [6]: -7.41%
%-inhibition of NEK2 [7]: -7%
%-inhibition of DDR2 [8]: 0%
%-inhibition of NEK7 [9]: -11%
